A short description of data set [1]: Dissolution test according to USP 26 at pH 6.8. The format is physicochemical. The procedure:
A dissolution test is carried out on the microcapsules thus obtained comparing them with anhydrous theophylline in crystalline form.
The dissolution test was performed according to USP 26.
A dissolution test is carried out on the microcapsules obtained in Examples 5 and 6 according to the method previously described for Example 4
Dissolution test was performed according to USP 26
A dissolution test is carried out on the microcapsules thus obtained compared to fluoxetine raw material.
Dissolution test was performed according to USP 26.

Data set [2] can be described thus: Dissolution test according to USP 26 at pH 1.2. The note with it: caffeine. It counts as physicochemical. The procedure:
The microcapsutes obtained, when analysed with an electronic microscope (FIG. 3), show a distribution of the particles of the active principle within the polymeric membrane in the form of solid particles that are prevalently disposed at the interface between the polymer and the core. […] Dissolution test was performed according to USP 26.

In the case of `Cn1c(=O)c2[nH]cnc2n(C)c1=O` [Anhydrous Theophylline], the “Dissolution % at pH 6.8, 5 min” value in data set [1] (theophylline, USP 26) was 65%. Further, the “Dissolution % at pH 6.8, 10 min” value in data set [1] (theophylline, Table of Example 7, lower head) was found to be 100%. Besides, in data set [1] (15 min, theophylline, USP 26), the “Dissolution % at pH 6.8, 15 min” value was 100%.

For `Cn1c(=O)c2c(ncn2C)n(C)c1=O` [Caffeine], the “Dissolution % at pH 1.2, 60 min” value in data set [2] worked out at 100%.

For the compound `CNCCC(Oc1ccc(C(F)(F)F)cc1)c1ccccc1` (stereo not shown) [Fluoxetine], in data set [1] (fluoxetine, USP 26), the “Dissolution % at pH 6.8, 5 min” value came out at 55% and the “Dissolution % at pH 6.8, 10 min” value is reported as 75%. Moreover, the “Dissolution % at pH 6.8, 20 min” value in data set [1] (20 min, fluoxetine, USP 26) was 100%.

The record behind these values is patent US20130156934A1, “MICROCAPSULES BY COACERVATION CONTAINING A PHARMACEUTICAL INCORPORATED IN THE COATING POLYMER” (APTALIS PHARMA LIMITED, priority 2003, published 2013).
